From patent publication US9624244B2, “Benzo [B] isoxazoloazepine bromodomain inhibitors and uses thereof” (Constellation Pharmaceuticals, Inc., priority 2012, dated 2017) come the findings set out here.

Each structure is given as a SMILES string.

Assay [1] has as its system IL-6 secretion, THP-1 cells. The assay can be described thus: Cell-based IL-6 quantification assay (ELISA, Mesoscale) in LPS-stimulated THP-1 cells. To be noted: Homo sapiens, LPS 4 μg/mL, 16 h, ELISA value/CellTiter-Glo ratio. The method, then:
Cell-Based IL-6 Quantification Assay (ELISA, Mesoscale Assay):
100,000 THP-1 cells were seeded in RPMI1640-10% FBS in 96-well plates. LPS (E. Coli Invitrogen) in RPMI-10% FBS at a final concentration of 4 μg/mL was added to the wells and the cells are then incubated in the presence of various concentrations of compounds for 16 h. Plates are spun ([…], 5 min), an aliquot of 25 uL supernatant is transferred in to an ELISA plate (Mesoscale technology, MSD) and the detection of IL-6 is performed using manufacturer's instructions. The amount of cells in each well is assessed using CellTiter-Glo® (Promega). The ratio of ELISA value/CellTiter-Glo value is used to calculate the percent of inhibition of IL-6 secretion.
For orientation: ELISA stands for enzyme-linked immunosorbent assay.

In a further assay the target is T1, BRD4(BD1) (Homo sapiens, UniProt O60885).
T1 construct: His; made in house
The assay can be described thus: BRD4 AlphaLisa binding assay. The conditions noted are these: BRD4(BD1) 30 nM, biotinylated H4-tetraacetyl peptide 200 nM, read-out: AS IC50. The method, then:
IC50 Measurements for Inhibitors Using BRD4 AlphaLisa Binding Assay
Specifically, in a 384 well ProxiPlate BRD4(BD1) (30 nM final) was combined with peptide (200 nM final) in 40 mM HEPES (pH 7.0), 40 mM NaCl, 1 mM DTT, 0.01% (w/v) BSA, and 0.008% (w/v) Brij-35 either in the presence of DMSO (final 1.2% DMSO) or compound dilution series in DMSO. After 20 minute incubation at room temperature Alpha streptavidin donor beads and AlphaLisa anti-Flag acceptor beads were added to a final concentration of 10 ug/mL each. After three hours equilibration plates were read on an Envision instrument and IC50s calculated using a four parameter non-linear curve fit.
(Alpha assays give light when donor and acceptor beads are brought close together.)

The test system of assay [2] is MYC mRNA, MV4:11 (AML) or Raji (Burkitt's lymphoma) cells. The assay can be described thus: cMyc RNA quantification assay (QuantiGene). In kind it is cell-based. To be noted: MV4:11 or Raji cells, 4 h, MYC mRNA normalized to DMSO. The method, then:
cMyc RNA Quantification Assay (QuantiGene® Assay):
MV4:11 (AML) or Raji (Burkitt's lymphoma) cells were seeded in a 96-well plate and incubated in the presence of various concentrations of compounds for 4 h. Relative mRNA levels were quantitated by using QuantiGene 2.0 assay (Affymetrix) according to the manufacturer's recommendation. Signals were detected by using an Envision plate reader (Perkin-Elmer). Biological duplicates were averaged and normalized to vehicle (DMSO) control to calculate percent MYC mRNA levels.

Usually IC50 stands for the concentration at which inhibition is half-maximal. For the compound `Cc1noc2c1-c1ccccc1NCC2` [Compound 100, 1-methyl-5,6-dihydro-4H-benzo[b]isoxazolo[4,5-d]azepine], the IC50 in assay [1] is over 15000 nM; on BRD4(BD1), 29800 nM.

Take `Cc1noc2c1-c1ccccc1N(c1ccc(Cl)cc1)CC2` [Compound 101]: the concentration for half-maximal inhibition (IC50) in assay [1] was 11900 nM; on BRD4(BD1) it was 2680 nM.

Turning to `Cc1noc2c1-c1ccccc1N(c1ccc(C#N)cc1)CC2` [Compound 102], the half-inhibitory concentration (IC50) was 4570 nM in assay [1] and 430 nM on BRD4(BD1).

On to `Cc1noc2c1-c1ccccc1N(c1ccc(C#N)cc1)CC21CC1` [Compound 104], for which the IC50 on BRD4(BD1) was 750 nM.

For the compound `Cc1noc2c1-c1ccccc1N(c1ccc(Cl)cc1)CC21CC1` [Compound 105], the IC50 on BRD4(BD1) turned out to be 3380 nM.

In general, EC50 refers to the concentration giving half of the maximal effect. The low end stands for an effect from little substance, the high end for a need for much substance. `Cc1ccc2c(c1)-c1c(C)noc1CCN2c1ccc(C#N)cc1` [Compound 106]: the concentration for a half-maximal effect (EC50) in assay [2] was 1980 nM. For the same compound, the figures for the IC50 (in assay [1]; at BRD4(BD1)) were over 1000 nM and 230 nM, respectively.

In the case of `Cc1cc(C#N)ccc1N1CCc2onc(C)c2-c2ccccc21` [Compound 107], the results for the IC50 (in assay [1]; at BRD4(BD1)) were over 15000 nM and over 4000 nM, respectively.

For the compound `Cc1noc2c1-c1cc(C#N)ccc1N(c1ccc(C#N)cc1)CC2` [Compound 108], at BRD4(BD1), the half-inhibitory concentration (IC50) is 570 nM.

With `Cc1noc2c1-c1ccc(-c3cncnc3)cc1N(c1ccc(C#N)cc1)CC2` [Compound 109], in assay [2], a half-maximal response (EC50) required 2040 nM. The concentration for half-maximal inhibition (IC50) in assay [1] was over 1000 nM; on BRD4(BD1) it was 350 nM.

`Cc1noc2c1-c1ccc(-c3cnn(C)c3)cc1N(c1ccc(C#N)cc1)CC2` [Compound 110]: the midpoint of the response in assay [2], the EC50, lay at 780 nM. Also, the IC50 in assay [1] is over 1000 nM; at BRD4(BD1), 80 nM.

The compound `Cc1noc(C)c1-c1ccc2c(c1)N(c1ccc(C#N)cc1)CCc1onc(C)c1-2` [Compound 111] showed an EC50 in assay [2] of 3330 nM. Moreover, the figures for the concentration for half-maximal inhibition (IC50) (in assay [1]; on BRD4(BD1)) were over 1000 nM and 300 nM, respectively.

As for `Cc1noc2c1-c1cc(-c3cncnc3)ccc1N(c1ccc(C#N)cc1)CC2` [Compound 112], the values for the IC50 (in assay [1]; at BRD4(BD1)) were over 15000 nM and 50000 nM, respectively.

As for `Cc1noc(C)c1-c1ccc2c(c1)-c1c(C)noc1CCN2c1ccc(C#N)cc1` [Compound 113], in assay [2], the half-maximal effective concentration (EC50) was over 4000 nM. Further, the results for the IC50 (in assay [1]; on BRD4(BD1)) were 7400 nM and 8900 nM, respectively.

Turning to `Cc1noc2c1-c1cc(-c3cnn(C)c3)ccc1N(c1ccc(C#N)cc1)CC2` [Compound 114], the EC50 in assay [2] is over 4000 nM. The IC50 in assay [1] was over 15000 nM; at BRD4(BD1), 3800 nM.

Turning to `Cc1noc2c1-c1ccc(-c3ccc(C(=O)O)cc3)cc1N(c1ccc(C#N)cc1)CC2` [Compound 115], the EC50 in assay [2] stood at 2120 nM. Also, the figures for the IC50 (in assay [1]; on BRD4(BD1)) were 530 nM and 30 nM, respectively.

As for `Cc1noc2c1-c1ccc(-c3ccc(N)nc3)cc1N(c1ccc(C#N)cc1)CC2` [Compound 116], the EC50 in assay [2] was 550 nM. Besides, the IC50 in assay [1] is 380 nM; at BRD4(BD1) it was 60 nM.

As to `Cc1noc2c1-c1ccc(-c3ccc(=O)n(C)c3)cc1N(c1ccc(C#N)cc1)CC2` [Compound 117], it took 610 nM to reach a half-maximal effect in assay [2] (EC50). The values for the concentration for half-maximal inhibition (IC50) (in assay [1]; at BRD4(BD1)) were 150 nM and 40 nM, respectively.

Compound `Cc1noc2c1-c1ccc(-c3cnn(C)c3)c(C)c1N(c1ccc(C#N)cc1)CC2C` (stereo not drawn) [Compound 118] yielded an EC50 in assay [2] of 830 nM. The figures for the half-inhibitory concentration (IC50) (in assay [1]; on BRD4(BD1)) were 520 nM and 160 nM, respectively.

Consider `Cc1noc2c1-c1ccc(-c3cnn(C)c3)cc1N(c1ccc(C(N)=O)cc1)CC2` [Compound 119], for which it took 460 nM to reach a half-maximal effect in assay [2] (EC50). Further, the figures for the IC50 (in assay [1]; on BRD4(BD1)) were 610 nM and 150 nM, respectively.

As to `Cc1noc2c1-c1ccc(-c3cnn(C)c3)cc1N(c1ccc(S(C)(=O)=O)cc1)CC2` [Compound 120], it took 1460 nM to reach a half-maximal effect in assay [2] (EC50). Moreover, the 50% inhibitory concentration (IC50) in assay [1] is over 1000 nM; on BRD4(BD1), 240 nM.

In turn, `CCC1CN(c2ccc(C#N)cc2)c2cc(-c3cnn(C)c3)ccc2-c2c(C)noc21` (stereo not drawn) [Compound 121] gave an EC50 in assay [2] of 460 nM. Besides, the half-maximal inhibitory concentration (IC50) in assay [1] turned out to be 150 nM; at BRD4(BD1) it was 80 nM.

The compound `CCC1CN(c2ccc(C#N)cc2)c2cc(-c3ccc(=O)n(C)c3)ccc2-c2c(C)noc21` (stereo not drawn) [Compound 122] had an EC50 in assay [2] of 240 nM. Further, the half-inhibitory concentration (IC50) came out at 120 nM in assay [1] and 40 nM on BRD4(BD1).

With `Cc1noc2c1-c1ccc(-c3ccc(N)nc3)cc1N(c1ccc(C#N)cc1)CC2C` (stereo not drawn) [Compound 123], the midpoint of the response in assay [2], the EC50, lay at 200 nM. Also, the IC50 in assay [1] is 80 nM; at BRD4(BD1) it was 40 nM.

As to `Cc1noc2c1-c1ccc(-c3cnn(C)c3)cc1N(c1ccc(C#N)cc1)CC2C` (stereo not drawn) [Compound 124], the half-maximal effective concentration (EC50) in assay [2] worked out at 260 nM. In addition, the IC50 in assay [1] came out at 120 nM; on BRD4(BD1), 40 nM.

In assay [2], `Cc1noc2c1-c1ccc(-c3ccc(=O)n(C)c3)cc1N(c1ccc(C#N)cc1)CC2C` (stereo not drawn) [Compound 125] gave an EC50 of 170 nM. Besides, the IC50 turned out to be 90 nM in assay [1] and 40 nM on BRD4(BD1).

In turn, `Cc1noc2c1-c1cc(C(N)=O)ccc1N(c1ccc(C#N)cc1)CC2` [Compound 126, 6-(4-cyanophenyl)-1-methyl-5,6-dihydro-4H-benzo[b]isoxazolo[4,5-d]azepine-9-carboxamide] displayed a half-maximal effective concentration (EC50) in assay [2] of 1790 nM. The results for the half-maximal inhibitory concentration (IC50) (in assay [1]; at BRD4(BD1)) were 5280 nM and 1410 nM, respectively.

For the compound `Cc1noc2c1-c1ccccc1N(C)CC2` [Compound 127, 1,6-dimethyl-5,6-dihydro-4H-benzo[b]isoxazolo[4,5-d]azepine], the half-maximal inhibitory concentration (IC50) in assay [1] was over 15000 nM; at BRD4(BD1) it was 9870 nM.

Consider `Cc1noc2c1-c1ccccc1N(C(C)C)CC2` [Compound 128, 6-isopropyl-1-methyl-5,6-dihydro-4H-benzo[b]isoxazolo[4,5-d]azepine], for which the results for the half-inhibitory concentration (IC50) (in assay [1]; at BRD4(BD1)) were over 15000 nM and 8100 nM, respectively.

For the compound `CCCN1CCc2onc(C)c2-c2ccccc21` [Compound 129, 1-methyl-6-propyl-5,6-dihydro-4H-benzo[b]isoxazolo[4,5-d]azepine], the IC50 in assay [1] was over 15000 nM; at BRD4(BD1), 7900 nM.

In turn, `Cc1noc2c1-c1ccccc1N(Cc1ccccc1)CC2` [Compound 130, 6-benzyl-1-methyl-5,6-dihydro-4H-benzo[b]isoxazolo[4,5-d]azepine] displayed an EC50 in assay [2] of over 4000 nM. Besides, the 50% inhibitory concentration (IC50) in assay [1] was 5900 nM; at BRD4(BD1), 12900 nM.

In turn, `Cc1cccc2c1N(Cc1ccccc1)CCc1onc(C)c1-2` [Compound 131, 6-benzyl-1,7-dimethyl-5,6-dihydro-4H-benzo[b]isoxazolo[4,5-d]azepine] yielded a 50% effective concentration (EC50) in assay [2] of over 4000 nM. The IC50 in assay [1] was determined as 8500 nM; on BRD4(BD1), 20700 nM.

Consider `Cc1noc2c1-c1ccccc1N(C(=O)c1ccccc1)CC2` [Compound 132, (1-methyl-4H-benzo[b]isoxazolo[4,5-d]azepin-6(5H)-yl)(phenyl)methanone], for which the half-maximal inhibitory concentration (IC50) in assay [1] is 3110 nM; on BRD4(BD1), 8140 nM.

Compound `Cc1noc2c1-c1ccc(Cl)cc1N(S(=O)(=O)c1ccccc1)CC2` [Compound 133, 8-chloro-1-methyl-6-(phenylsulfonyl)-5,6-dihydro-4H-benzo[b]isoxazolo[4,5-d]azepine] showed an EC50 in assay [2] of over 4000 nM. Moreover, the results for the IC50 (in assay [1]; at BRD4(BD1)) were over 1000 nM and over 4000 nM, respectively.

`Cc1noc2c1-c1ccc(-c3cnn(C)c3)cc1N(c1ccc(C#N)cc1)CC2CC#N` (stereo not drawn) [Compound 140, 4-(4-(cyanomethyl)-1-methyl-8-(1-methyl-1H-pyrazol-4-yl)-4H-benzo[b]isoxazolo[4,5-d]azepin-6(5H)-yl)benzonitrile]: the half-inhibitory concentration (IC50) was over 1000 nM in assay [1] and 500 nM on BRD4(BD1).

In the case of `Cc1noc2c1-c1ccccc1N(c1ccc(C#N)cc1)C(C)C2` (stereo not drawn) [Compound 141, 4-(1,5-dimethyl-4H-benzo[b]isoxazolo[4,5-d]azepin-6(5H)-yl)benzonitrile], the IC50 worked out at 4390 nM in assay [1] and 560 nM at BRD4(BD1).

In the case of `Cc1noc2c1-c1ccccc1NC(=O)C2N` (stereo not drawn) [Compound 142, 4-amino-1-methyl-4H-benzo[b]isoxazolo[4,5-d]azepin-5(6H)-one], the concentration for half-maximal inhibition (IC50) in assay [1] is over 1000 nM; at BRD4(BD1) it was over 80000 nM.

Regarding `Cc1onc2c1-c1ccccc1NCC2` [Compound 143, 1-methyl-5,6-dihydro-4H-benzo[b]isoxazolo[4,3-d]azepine], on BRD4(BD1), the concentration for half-maximal inhibition (IC50) turned out to be 39600 nM.

For `Cc1noc2c1-c1ccccc1NC(C)C2` (stereo not drawn) [Compound 144, 1,5-dimethyl-5,6-dihydro-4H-benzo[b]isoxazolo[4,5-d]azepine], the 50% inhibitory concentration (IC50) in assay [1] was over 15000 nM; at BRD4(BD1) it was 24000 nM.
